Test results published in PMC6325200, “Effects of Microplate Type and Broth Additives on Microdilution MIC Susceptibility Assays” (Antimicrobial Agents and Chemotherapy, 2018).
Converted amounts (≈) assume the structure as drawn. Where two headings read alike, the source gives them in different places.

Key:
MRSA ATCC 43300 = test system: MRSA ATCC 43300
Description: (§1) A positive control of a row of just the bacteria and a negative control of only the medium were included for every plate tested.
(§2) The compounds along with standard antibiotics were serially diluted 2-fold across the 96-well plates. […] A sample of each culture was then diluted 40-fold in fresh MH broth (in presence and absence of Tween) and incubated at 37°C for 2 to 3 h.
For experiments in the presence of surfactant, 2% beractant (25 mg/ml) was added to the mid-log-phase cultures and mixed gently and added to all the 96-well plates. For experiments in the presence of serum, a mixture of 50% of human serum along with 50% MHB was prepared and used throughout the experiment.

E. faecalis ATCC 29212 = assay: microbe, parasite or virus in culture; conditions: n = 2
Description: as §1, §2

[1] = test system: MSSA S. aureus ATCC 25923; assay: microbe, parasite or virus in culture; conditions: n = 2
Description: as §1, §2

[2] = test system: S. aureus GISA NRS 2; ATCC 700698; assay: microbe, parasite or virus in culture; conditions: n = 2
Description: as §1, §2

S. pneumoniae ATCC 33440 = assay: microbe, parasite or virus in culture; conditions: n = 2
Description: as §1, §2

[3] = test system: S. pneumoniae ATCC 700677 (MDR); assay: microbe, parasite or virus in culture; conditions: n = 2
Description: as §1, §2

S. pyogenes ATCC 12344 = conditions: n = 2
Description: as §1, §2

MRSA = conditions: literature value; cited from earlier work
Text: TABLE 1 Literature MIC values for tested antibiotics | column: MIC (µg/ml) (reference[s]) / MRSA

[4] = literature values, reference given; cited from earlier work
Text: Other assay additives can affect MIC values. […] Plasma protein binding has been implicated as a major factor limiting the active free concentration of many clinically important antibiotics ([37][–][42]).

[5] = Corning flat NBS plate, MHB +0.002% T80, no further additive, n = 2
[6] = Corning flat PS plate, MHB −T80, no additive, n = 2

Compound: CNC(=O)[C@H](CCCCNC(=O)[C@H]1NC(=O)[C@H]2NC(=O)[C@H](NC(=O)[C@@H]3NC(=O)[C@H](CC(N)=O)NC(=O)[C@H](NC(=O)[C@@H](CC(C)C)NC)[C@H](O)c4ccc(c(Cl)c4)Oc4cc3cc(c4O[C@@H]3O[C@H](CO)[C@@H](O)[C@H](O)[C@H]3O[C@H]3C[C@](C)(N)[C@H](O)[C@H](C)O3)Oc3ccc(cc3Cl)[C@H]2O)c2ccc(O)c(c2)-c2c(O)cc(O)cc21)NC(=O)[C@H](CCCCN)NC(=O)[C@H](CCCCN)NC(=O)[C@H](CCCCNC(=O)c1ccc(Oc2ccccc2)cc1)NC(=O)c1ccc(Oc2ccccc2)cc1 [MCC310]
- MIC (MRSA ATCC 43300; [5]): 0.007 µg/mL (≈ 0.00296 µM)
- MIC (MRSA ATCC 43300; [6]): 4 µg/mL (≈ 1.69 µM)

Compound: CN[C@H](CC(C)C)C(=O)N[C@H]1C(=O)N[C@@H](CC(N)=O)C(=O)N[C@H]2C(=O)N[C@H]3C(=O)N[C@H](C(=O)N[C@H](C(=O)O)c4cc(O)cc(O)c4-c4cc3ccc4O)[C@H](O)c3ccc(c(Cl)c3)Oc3cc2cc(c3O[C@@H]2O[C@H](CO)[C@@H](O)[C@H](O)[C@H]2O[C@H]2C[C@](C)(N)[C@H](O)[C@H](C)O2)Oc2ccc(cc2Cl)[C@H]1O [Vancomycin, vancomycin]
- MIC (MRSA ATCC 43300; Corning NBS, MH + 2% LHB, 2% LS, n = 2): 0.5 to 1 µg/mL
- MIC (MRSA ATCC 43300; Corning NBS, MH + 2% LHB, 50% HS, n = 2): 0.5 to 1 µg/mL
- MIC (MRSA ATCC 43300; Corning NBS, MH + 2% LHB, no additive, n = 2): 1 µg/mL
- MIC (MRSA ATCC 43300; Corning NBS, MH + T80, 2% LS, n = 2): 0.25 to 0.5 µg/mL
- MIC (MRSA ATCC 43300; Corning NBS, MH + T80, 50% HS, n = 2): 1 µg/mL
- MIC (MRSA ATCC 43300; Corning NBS, MH, 2% LS, n = 2): 0.5 µg/mL (≈ 0.345 µM)
- MIC (MRSA ATCC 43300; Corning NBS, MH, 50% HS, n = 2): 0.25 to 0.5 µg/mL
- MIC (MRSA ATCC 43300; Corning PS, MH + 2% LHB, 2% LS, n = 2): 0.5 to 1 µg/mL
- MIC (MRSA ATCC 43300; Corning PS, MH + 2% LHB, 50% HS, n = 2): 0.5 to 1 µg/mL
- MIC (MRSA ATCC 43300; Corning PS, MH + 2% LHB, no additive, n = 2): 1 µg/mL
- MIC (MRSA ATCC 43300; Corning PS, MH + T80, 2% LS, n = 2): 0.5 to 2 µg/mL
- MIC (MRSA ATCC 43300; Corning PS, MH + T80, 50% HS, n = 2): 0.5 µg/mL
- MIC (MRSA ATCC 43300; Corning PS, MH, 2% LS, n = 2): 0.5 to 1 µg/mL
- MIC (MRSA ATCC 43300; Corning PS, MH, 50% HS, n = 2): 0.25 to 0.5 µg/mL
- MIC (MRSA ATCC 43300; Corning TC, MH + 2% LHB, 2% LS, n = 2): 0.5 to 1 µg/mL
- MIC (MRSA ATCC 43300; Corning TC, MH + 2% LHB, 50% HS, n = 2): 0.5 µg/mL
- MIC (MRSA ATCC 43300; Corning TC, MH + 2% LHB, no additive, n = 2): 0.5 µg/mL
- MIC (MRSA ATCC 43300; Corning TC, MH + T80, 2% LS, n = 2): 0.5 µg/mL
- MIC (MRSA ATCC 43300; Corning TC, MH + T80, 50% HS, n = 2): 0.5 to 1 µg/mL
- MIC (MRSA ATCC 43300; Corning TC, MH, 2% LS, n = 2): 0.25 to 1 µg/mL
- MIC (MRSA ATCC 43300; Corning TC, MH, 50% HS, n = 2): 0.25 to 0.5 µg/mL
- MIC (MRSA ATCC 43300; [5]): 1 µg/mL (≈ 0.69 µM)
- MIC (MRSA ATCC 43300; Corning flat NBS plate, MHB −T80, no additive, n = 2): 0.5 µg/mL (≈ 0.345 µM)
- MIC (MRSA ATCC 43300; Corning flat PS plate, MHB +0.002% T80, no further additive, n = 2): 1 to 2 µg/mL
- MIC (MRSA ATCC 43300; [6]): 0.5 µg/mL (≈ 0.345 µM)
- MIC (MRSA ATCC 43300; Corning flat TC plate, MHB +0.002% T80, no further additive, n = 2): 1 µg/mL (≈ 0.69 µM)
- MIC (MRSA ATCC 43300; Corning flat TC plate, MHB −T80, no additive, n = 2): 0.5 µg/mL (≈ 0.345 µM)
- MIC (MRSA ATCC 43300; Nunc U TC plate, MHB +0.002% T80, n = 2): 1 µg/mL (≈ 0.69 µM)
- MIC (MRSA ATCC 43300; Nunc U TC plate, MHB −T80, n = 2): 0.5 µg/mL (≈ 0.345 µM)
- MIC (MRSA ATCC 43300; Nunc flat PS plate, MHB +0.002% T80, n = 2): 1 µg/mL (≈ 0.69 µM)
- MIC (MRSA ATCC 43300; Nunc flat PS plate, MHB −T80, n = 2): 1 µg/mL (≈ 0.69 µM)
- MIC (MRSA ATCC 43300; Nunc flat TC plate, MHB +0.002% T80, n = 2): 1 µg/mL (≈ 0.69 µM)
- MIC (MRSA ATCC 43300; Nunc flat TC plate, MHB −T80, n = 2): 1 to 2 µg/mL
- MIC (MRSA ATCC 43300; Trek PS, MH + 2% LHB, 2% LS, n = 2): 0.25 to 0.5 µg/mL
- MIC (MRSA ATCC 43300; Trek PS, MH + 2% LHB, 50% HS, n = 2): 0.5 µg/mL
- MIC (MRSA ATCC 43300; Trek PS, MH + 2% LHB, no additive, n = 2): 0.25 µg/mL
- MIC (MRSA ATCC 43300; Trek PS, MH + T80, 2% LS, n = 2): 0.06 to 1 µg/mL
- MIC (MRSA ATCC 43300; Trek PS, MH + T80, 50% HS, n = 2): 0.25 to 0.5 µg/mL
- MIC (MRSA ATCC 43300; Trek PS, MH, 2% LS, n = 2): 0.03 µg/mL (≈ 0.0207 µM)
- MIC (MRSA ATCC 43300; Trek PS, MH, 50% HS, n = 2): 0.25 µg/mL (≈ 0.173 µM)
- MIC (MRSA ATCC 43300; Trek flat PS plate, MHB +0.002% T80, no further additive, n = 2): 1 µg/mL (≈ 0.69 µM)
- MIC (MRSA ATCC 43300; Trek flat PS plate, MHB −T80, no additive, n = 2): 0.5 to 1 µg/mL
- MIC (MRSA ATCC 43300; regardless of plate type or addition of T80): around 1 µg/ml
- MIC (E. faecalis ATCC 29212; Corning NBS, MHB +T80): 1 µg/mL (≈ 0.69 µM)
- MIC (E. faecalis ATCC 29212; Corning NBS, MHB -T80): 1 to 2 µg/mL
- MIC (E. faecalis ATCC 29212; Corning PS, MHB +T80): 1 µg/mL (≈ 0.69 µM)
- MIC (E. faecalis ATCC 29212; Corning PS, MHB -T80): 1 µg/mL (≈ 0.69 µM)
- MIC (E. faecalis ATCC 29212; Corning TC, MHB +T80): 1 µg/mL (≈ 0.69 µM)
- MIC (E. faecalis ATCC 29212; Corning TC, MHB -T80): 1 to 2 µg/mL
- MIC ([1]; Corning NBS, MHB +T80): 1 to 2 µg/mL
- MIC ([1]; Corning NBS, MHB -T80): 0.5 to 1 µg/mL
- MIC ([1]; Corning PS, MHB +T80): 1 to 2 µg/mL
- MIC ([1]; Corning PS, MHB -T80): 0.5 to 1 µg/mL
- MIC ([1]; Corning TC, MHB +T80): 1 µg/mL (≈ 0.69 µM)
- MIC ([1]; Corning TC, MHB -T80): 0.5 to 1 µg/mL
- MIC ([2]; Corning NBS, MHB +T80): 0.5 to 1 µg/mL
- MIC ([2]; Corning NBS, MHB -T80): 0.5 µg/mL (≈ 0.345 µM)
- MIC ([2]; Corning PS, MHB +T80): 0.5 to 1 µg/mL
- MIC ([2]; Corning PS, MHB -T80): 0.5 to 1 µg/mL
- MIC ([2]; Corning TC, MHB +T80): 0.5 µg/mL (≈ 0.345 µM)
- MIC ([2]; Corning TC, MHB -T80): 0.5 to 1 µg/mL
- MIC (S. pneumoniae ATCC 33440; Corning NBS, MHB +T80): 0.5 to 1 µg/mL
- MIC (S. pneumoniae ATCC 33440; Corning NBS, MHB -T80): 0.5 to 1 µg/mL
- MIC (S. pneumoniae ATCC 33440; Corning PS, MHB +T80): 1 µg/mL (≈ 0.69 µM)
- MIC (S. pneumoniae ATCC 33440; Corning PS, MHB -T80): 1 µg/mL (≈ 0.69 µM)
- MIC (S. pneumoniae ATCC 33440; Corning TC, MHB +T80): 1 µg/mL (≈ 0.69 µM)
- MIC (S. pneumoniae ATCC 33440; Corning TC, MHB -T80): 0.5 to 1 µg/mL
- MIC ([3]; Corning NBS, MHB +T80): 1 to 2 µg/mL
- MIC ([3]; Corning NBS, MHB -T80): 0.5 µg/mL (≈ 0.345 µM)
- MIC ([3]; Corning PS, MHB +T80): 1 µg/mL (≈ 0.69 µM)
- MIC ([3]; Corning PS, MHB -T80): 1 µg/mL (≈ 0.69 µM)
- MIC ([3]; Corning TC, MHB +T80): 0.5 to 1 µg/mL
- MIC ([3]; Corning TC, MHB -T80): 1 µg/mL (≈ 0.69 µM)
- MIC (S. pyogenes ATCC 12344; Corning NBS, MHB +T80): 0.125 to 0.25 µg/mL
- MIC (S. pyogenes ATCC 12344; Corning NBS, MHB -T80): 0.125 to 0.25 µg/mL
- MIC (S. pyogenes ATCC 12344; Corning PS, MHB +T80): 0.125 µg/mL (≈ 0.0863 µM)
- MIC (S. pyogenes ATCC 12344; Corning PS, MHB -T80): 0.125 µg/mL (≈ 0.0863 µM)
- MIC (S. pyogenes ATCC 12344; Corning TC, MHB +T80): 0.125 to 0.25 µg/mL
- MIC (S. pyogenes ATCC 12344; Corning TC, MHB -T80): 0.125 µg/mL (≈ 0.0863 µM)
- MIC (literature) (MRSA): 2 ([62]) µg/ml
- protein binding [4]: 55%

Compound: CC(=O)NC[C@H]1CN(c2ccc(N3CCOCC3)c(F)c2)C(=O)O1 [linezolid]
- protein binding [4]: 31%

Compound: C[C@@H](O)[C@H]1C(=O)N2C(C(=O)O)=C(S[C@@H]3CN[C@H](C(=O)N(C)C)C3)[C@H](C)[C@H]12 [meropenem]
- protein binding [4]: 2%

Compound: daptomycin
- protein binding [4]: 92%
